Consider one molecule from US20240417387A1, “SULFONYLPIPERAZINYL COMPOUNDS FOR TREATMENT OF BACTERIAL INFECTIONS” (Hoffmann-La Roche Inc., priority 2021, published 2024).

Molecules are shown by their SMILES.

In general, IC50 refers to the concentration that inhibits the measured activity by half. By MIC is commonly meant the smallest concentration in the dilution series that meets the test's criterion for growth inhibition.

Data set [1] in a line: Human microsome stability assay. It is filed as in vitro ADME. The settings on record: human liver microsomes 0.5 mg/mL, 37° C., pH 7.4, NADPH regenerating system. The method in brief:
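Compound […] with 0.5 mg/mL human liver microsomal protein in 100 mM potassium phosphate pH 7.4, 10 min preincubation at 37 °C, started with NADPH regenerating system. Sampled 0–30 min, remaining compound by LC-MS/MS; clearance binned low <7, medium 7–16.2, high >16.2 mL/min/kg.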
(In general: Microsomes from liver hold many membrane-bound enzymes, among them those of drug oxidation.)

For data set [2], the target named is Escherichia coli UDP-2,3-diacylglucosamine hydrolase (LpxH) (Escherichia coli (strain K12), UniProt P43341). Put plainly: Enzymatic IC50 assay of Escherichia coli LpxH (UMP/CMP-Glo luminescence). The data set is classed as biochemical. The note with it: Enzymatic IC50 against Escherichia coli LpxH; read-out: IC50 (converted). The method in brief: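 LpxH (2 nM) preincubated 10 min at room temperature with compound (100 μM to 1.7 nM) in Tris-HCl pH7.5 buffer with 2.5 mM MnCl2, then reacted with 5 μM UDP-DAG for 20 min. Reaction heat-stopped at 95° C.; released UMP converted to ATP and read by luciferase luminescence (UMP/CMP-Glo).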
Sequence of Escherichia coli UDP-2,3-diacylglucosamine hydrolase (LpxH) (P43341 whole entry): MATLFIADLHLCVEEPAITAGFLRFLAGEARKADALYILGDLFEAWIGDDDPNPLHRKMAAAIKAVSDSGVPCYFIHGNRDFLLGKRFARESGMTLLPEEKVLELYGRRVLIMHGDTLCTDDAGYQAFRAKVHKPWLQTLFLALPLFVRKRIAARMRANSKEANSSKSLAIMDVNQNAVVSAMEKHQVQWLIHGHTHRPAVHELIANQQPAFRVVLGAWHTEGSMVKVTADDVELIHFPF

The test system of data set [3] is Klebsiella pneumonia ATCC 43816. Put plainly: Minimal Inhibitory Concentration (MIC) broth dilution assay, K. pneumonia ATCC 43816. It is filed as cell-based. The settings on record: Klebsiella pneumoniae, ATCC43816, 20 hours at 35° C., CAMHB, read-out: MIC K. p ATCC 43816. The method in brief:
(§1)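 Broth microdilution with twofold compound series in cation-adjusted Mueller Hinton broth, inoculum 5×10^5 CFU/mL, applied to each strain. Plates incubated 20 h at 35 °C in ambient air. MIC […] recorded as the lowest concentration with no visible growth, read by eye.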
(In general: Dilution methods test growth across graded concentrations, often in twofold steps.)

In a further data set the test system is LPS synthesis pathway. The note with it: reported in Bioorganic Chemistry (2020), 102, 104055; cited from earlier work.
Data set [4] deals with Escherichia coli ATCC 25922. The experiment in a line: Minimal Inhibitory Concentration (MIC) broth dilution assay, E. coli ATCC 25922. It is filed as cell-based. The settings on record: Escherichia coli, ATCC25922, 20 h, read-out: MIC E. coli ATCC 25922. The method in brief:
as §1

For data set [5], the system named is Escherichia coli BW 25113. The experiment in a line: Minimal Inhibitory Concentration (MIC) broth dilution assay, E. coli BW 25113. The note with it: Escherichia coli, BW25113, 20 hours at 35° C., CAMHB, read-out: MIC E. coli K-12 BW 25113. It is filed as cell-based. The method in brief: as §1
Data set [6] deals with efflux-deficient Escherichia coli strains. The note with it: reported in Bioorganic Chemistry (2020), 102, 104055; cited from earlier work.

For `CC(=O)N1CCc2cc(S(=O)(=O)N3CCN(c4cc(Cl)cc(C(F)(F)F)c4)CC3)ccc21` [JH-LPH-33, reference compound], the “Clearance of Human microsome” value in data set [1] was determined as 20.94 mL/min/kg. In addition, in data set [2], the IC50 was 293 nM. Moreover, the MIC in data set [3], in data set [4] and in data set [5] was over 24 µg/mL throughout. Moreover, the “LPS synthesis pathway inhibition activity” value in the data set on LPS synthesis pathway is “LPS synthesis pathway inhibition activity”. The “antibiotic activity against efflux-deficient Escherichia coli strains” value in data set [6] was “antibiotic activity”.
